# Reference: patent publication US12539273B2, “External nano liniment for gout and preparation method thereof” (priority 2021, dated 2026)
# Like-named read-outs stand apart in the source and are kept apart here.
# Assays:
# patients with gout = assay: Preliminary human trial of preparation: crystal dissolution of gout crystals; assay type: in vivo
# Protocol: The prepared nano liniment was applied to some patients with gout on trial. The gout treatment effect was obvious. The local application dosage was far below the dosage of the same oral medicine. The total dosage was safe.
# Method of application: the nano liniment was applied to the gout parts (most foot joints, some hand joints or other parts) twice a day (every morning and evening), 1 ml of the corresponding nano liniment was applied every time, the gout (crystal) parts were photographed at different points in time before and after the nano liniment was applied, and the blood uric acid concentration (i.e. the uric acid value under fasting) of some patients with obvious crystal dissolution and lump elimination was also determined as a reference.
# [1] = cited from earlier work; for cardiovascular and cerebrovascular and all-cause mortality: oral administration, statistic average period of 1 year
smiles,measurement,setting,value
OCc1ccc(O[C@@H]2O[C@H](CO)[C@@H](O)[C@H](O)[C@H]2O)cc1 [4-hydroxymethyl phenyl-beta-D-glucopyranoside],analgesic effect,"patients with gout; finding of the study, gout",good analgesic effect
same,gout treatment effect,patients with gout; patients with gout on trial,good treatment effect on gout
N#Cc1cc(-c2n[nH]c(-c3ccncc3)n2)ccn1 [Topiroxostat],Side effects,"[1]; oral tablet, marketed gout medicine",effect on the liver and bile.
Oc1ncnc2[nH]ncc12 [Allopurinol],cardiovascular and cerebrovascular and all-cause mortality,[1],mortality reaches up to 3.3%).
same,cardiovascular and cerebrovascular and all-cause mortality,[1]; listed as allopurinol,3.3%
Cc1nc(-c2ccc(OCC(C)C)c(C#N)c2)sc1C(=O)O [Febuxostat],cardiovascular and cerebrovascular and all-cause mortality,[1],reaches up to 4.1%).
same,cardiovascular and cerebrovascular and all-cause mortality,[1]; listed as febuxostat,4.1%
